Some test systems named below: HCC 2998; HOP-62; K562; KM12; MDA-MB-435; MOLT-4; Malme-3M; NCI-H226; NCI-H460; NCI-H522; NCI/ADR-RES; OVCAR-4; OVCAR-8; RPMI-8226; RXF 393; SF-295; SNB-75; T47D; UACC-257; CCRF-CEM.
Common to all, as to assay: NCI-60 cell line screen, 48 h

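These data come from cells grown in 96-well plates and exposed to compound for 48 hours at five concentrations. Here, GI50 denotes the concentration required for 50% inhibition of growth.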 Calls of active or inactive are those of the source. No stated cut-off is given here; in the data, active = GI50 up to about 1.1 µM and inactive = higher.

On to `O=C1OC2(c3ccc(O)cc3Oc3cc(O)ccc32)c2c1c(-c1ccccc1)c(-c1ccccc1)c(-c1ccccc1)c2-c1ccccc1`, for which the GI50 with HCC 2998 was 16.4 µM (inactive); in the test with HOP-62 it was 23.7 µM (inactive); with K562 it was 29.6 µM (inactive); with KM12, 17.1 µM (inactive); in the test on MDA-MB-435, 17.2 µM (inactive); in the test with MOLT-4, 23.9 µM (inactive). Also, the GI50 in the test on Malme-3M is 23.5 µM (inactive); with NCI-H226 it was 46.3 µM (inactive); in the test on NCI-H460, 17.7 µM (inactive); in the test on NCI-H522, 18.2 µM (inactive); in the test on NCI/ADR-RES it was 31.2 µM (inactive); in the test with OVCAR-4 it was 27.8 µM (inactive). The GI50 with OVCAR-8 was 22.4 µM (inactive); with RPMI-8226 it was 27.7 µM (inactive); in the test on RXF 393, 23.7 µM (inactive); in the test with SF-295, 21.6 µM (inactive); in the test with SNB-75, 18.7 µM (inactive); in the test with T47D, 26.5 µM (inactive). Moreover, the GI50 with UACC-257 is 27.7 µM (inactive).
In the case of `O=C(O)CCC1(c2ccccc2)NC(=O)NC1=O` (stereo unspecified), the GI50 in the test with CCRF-CEM, in the test with HCC 2998, in the test on HOP-62, with K562, with KM12 and with MDA-MB-435 was > 100 µM (inactive) throughout. The GI50 in the test on Malme-3M, in the test with NCI-H226, with NCI-H460, with NCI-H522, with NCI/ADR-RES and in the test with OVCAR-4 was > 100 µM (inactive) in each case. In addition, the GI50 in the test on OVCAR-8, in the test with RPMI-8226, with RXF 393, in the test on SF-295, with SNB-75 and in the test with T47D was > 100 µM (inactive) throughout. For the same molecule, the GI50 in the test with UACC-257 is > 100 µM (inactive).
For the molecule `COC(=O)C(C(=O)C(=O)NC1Nc2ccc(C)cc2S1)c1nc2ccc(Cl)cc2nc1O` (stereo unspecified), the GI50 in the test with HCC 2998, in the test on HOP-62, in the test with K562, in the test on KM12, with MDA-MB-435 and in the test with Malme-3M was > 100 µM (inactive) in each case. In addition, the GI50 in the test on NCI-H226 was > 100 µM (inactive); in the test on NCI-H460, > 100 µM (inactive); in the test with NCI-H522, > 100 µM (inactive); with NCI/ADR-RES, > 100 µM (inactive); in the test on OVCAR-4 it was 74 µM (inactive); with OVCAR-8 it was > 100 µM (inactive). Besides, the GI50 in the test with RPMI-8226, with RXF 393, in the test with SF-295, with SNB-75, in the test on T47D and in the test on UACC-257 was > 100 µM (inactive) each time.
As for `c1ccc2c(CN3CCN(Cc4c[nH]c5ccccc45)CC3)c[nH]c2c1`, the GI50 is 39.9 µM (inactive) in the test on CCRF-CEM; 1.63 µM (inactive) in the test with HCC 2998; 15.1 µM (inactive) in the test on HOP-62; 12.7 µM (inactive) in the test with K562; 16.8 µM (inactive) in the test on KM12; 16.2 µM (inactive) in the test on MDA-MB-435. Further, the GI50 is 15.3 µM (inactive) in the test on Malme-3M; 16.5 µM (inactive) in the test on NCI-H226; 12.7 µM (inactive) in the test with NCI-H460; 16.5 µM (inactive) in the test with NCI-H522; 23 µM (inactive) in the test on NCI/ADR-RES; 41.4 µM (inactive) in the test on OVCAR-4. Besides, the GI50 with OVCAR-8 was 19 µM (inactive); in the test with RPMI-8226 it was 19.3 µM (inactive); in the test on RXF 393, 14.3 µM (inactive); with SF-295, 16 µM (inactive); in the test on SNB-75 it was 13.3 µM (inactive); in the test with T47D, 14.2 µM (inactive). In addition, the GI50 with UACC-257 was 14.4 µM (inactive).
For the molecule `COc1ccc2c(c1)C(OC)C1c3c(cc4c(c3-2)OCO4)CCN1C` (stereo unspecified), the GI50 in the test on CCRF-CEM was 2.24 µM (inactive); in the test with HCC 2998 it was 3.4 µM (inactive); with HOP-62 it was 2.43 µM (inactive); with K562, 3.63 µM (inactive); in the test on KM12 it was 4.34 µM (inactive); in the test on MDA-MB-435, 3.34 µM (inactive). Moreover, the GI50 with MOLT-4 is 1.95 µM (inactive); with Malme-3M it was 2 µM (inactive); in the test with NCI-H226 it was 2.39 µM (inactive); in the test on NCI-H460, 2.82 µM (inactive); in the test with NCI-H522 it was 1.56 µM (inactive); in the test on NCI/ADR-RES, 1.87 µM (inactive). The GI50 was 2.32 µM (inactive) in the test on OVCAR-4; 2.5 µM (inactive) in the test on OVCAR-8; 3.46 µM (inactive) in the test with RPMI-8226; 2.06 µM (inactive) in the test on RXF 393; 2.38 µM (inactive) in the test with SF-295; 4.05 µM (inactive) in the test on SNB-75. The GI50 in the test with T47D is 6.56 µM (inactive); with UACC-257, 3.38 µM (inactive).
As for `O[C@@H]1CCC[C@@H]2NC[C@@H](c3ccc4c(c3)OCO4)[C@H]12`, the GI50 in the test on CCRF-CEM, in the test on HCC 2998, with HOP-62, in the test on K562, in the test with KM12 and in the test with MDA-MB-435 was > 100 µM (inactive) throughout. Besides, the GI50 in the test with MOLT-4, in the test with Malme-3M, in the test on NCI-H226, in the test with NCI-H460, in the test with NCI-H522 and in the test on NCI/ADR-RES was > 100 µM (inactive) each time. The GI50 in the test on OVCAR-4, in the test on OVCAR-8, in the test on RPMI-8226, in the test with RXF 393, in the test with SF-295 and with SNB-75 was > 100 µM (inactive) throughout. Also, the GI50 with T47D and in the test with UACC-257 was > 100 µM (inactive) throughout.
Consider `Oc1ccc(O)c(CNc2ccccc2)c1`, for which the GI50 in the test on CCRF-CEM is 2.37 µM (inactive); with HCC 2998 it was 26.2 µM (inactive); in the test with K562, 1.65 µM (inactive); with KM12, 5.13 µM (inactive); with MDA-MB-435 it was 8.81 µM (inactive); in the test on MOLT-4, 2.26 µM (inactive). For the same molecule, the GI50 was 14.2 µM (inactive) in the test on Malme-3M; 26.7 µM (inactive) with NCI-H226; 20.8 µM (inactive) in the test on NCI-H460; 1.94 µM (inactive) in the test with NCI-H522; 7.01 µM (inactive) with NCI/ADR-RES; 13 µM (inactive) with OVCAR-4. Moreover, the GI50 in the test on OVCAR-8 is 8.02 µM (inactive); with RPMI-8226, 1.02 µM (active); with RXF 393, 5.64 µM (inactive); in the test with SF-295, 12.1 µM (inactive); in the test with SNB-75 it was 33.5 µM (inactive); in the test on T47D, 8.41 µM (inactive). Besides, the GI50 in the test with UACC-257 is 16.9 µM (inactive).
With `COC(=N)c1ncn(Cc2ccccc2)c1N`, the GI50 in the test with CCRF-CEM, in the test with HCC 2998, in the test on HOP-62, in the test with K562, with KM12 and with MDA-MB-435 was > 100 µM (inactive) throughout. Besides, the GI50 with Malme-3M, in the test on NCI-H226, in the test on NCI-H460, in the test with NCI-H522, in the test with NCI/ADR-RES and in the test with OVCAR-4 was > 100 µM (inactive) throughout. Further, the GI50 in the test on OVCAR-8, with RPMI-8226, in the test on RXF 393, in the test with SF-295, in the test on SNB-75 and with T47D was > 100 µM (inactive) in each case. For the same molecule, the GI50 in the test with UACC-257 was > 100 µM (inactive).
With `CCC1(C)N=c2c(ncn2N=C(C)C)=C(C(N)=O)N1` (stereo unspecified), the GI50 is > 100 µM (inactive) with CCRF-CEM; > 100 µM (inactive) in the test with HCC 2998; > 100 µM (inactive) in the test with HOP-62; > 100 µM (inactive) in the test on K562; 22.6 µM (inactive) in the test with KM12; > 100 µM (inactive) with MDA-MB-435. Further, the GI50 in the test on Malme-3M, in the test on NCI-H226, in the test with NCI-H460, with NCI-H522, in the test with NCI/ADR-RES and in the test on OVCAR-4 was > 100 µM (inactive) each time. Also, the GI50 in the test with OVCAR-8, in the test on RPMI-8226, in the test on RXF 393, with SF-295, in the test on SNB-75 and in the test with T47D was > 100 µM (inactive) in each case. For the same molecule, in the test on UACC-257, the GI50 was > 100 µM (inactive).
With `Nc1cc2c(c3ccccc13)C(CCl)CN2C(=O)c1cc2cc(NC(=O)c3cc4ccccc4o3)ccc2[nH]1` (stereo unspecified), the GI50 in the test with CCRF-CEM is 0.00194 µM (active); in the test with HCC 2998, 0.00307 µM (active); in the test on HOP-62, 0.000891 µM (active); in the test on KM12, 0.00296 µM (active); in the test on MDA-MB-435 it was 0.0055 µM (active); with MOLT-4, 0.00046 µM (active). Besides, the GI50 is 0.00213 µM (active) in the test on Malme-3M; 0.11 µM (active) in the test on NCI-H226; 0.000308 µM (active) in the test with NCI-H460; 0.000925 µM (active) in the test on NCI-H522; 0.00136 µM (active) with NCI/ADR-RES; 0.00209 µM (active) in the test with OVCAR-4. Besides, the GI50 in the test on OVCAR-8 was 0.000408 µM (active); with RPMI-8226, 0.228 µM (active); in the test on RXF 393, 0.11 µM (active); in the test on SF-295 it was 0.11 µM (active); with SNB-75, 0.00294 µM (active); with T47D it was 0.00158 µM (active). Also, the GI50 with UACC-257 is 0.00627 µM (active).

The values are drawn from ChEMBL document CHEMBL1201862, “PubChem BioAssay data set” (2004).
